From ChEMBL document CHEMBL1155258, “Computational selection of inhibitors of Abeta aggregation and neuronal toxicity” (Bioorg Med Chem, 2009)
The source made the active and inactive calls. No cut-off for these calls is given here.

What was measured:
N2a [1] = assay: Neurotoxicity against mouse N2A cells after 24 hrs by MTS assay; format: toxicity, cell-based
[2] = Inhibition of amyloid beta (1-42) self-aggregation after 24 hrs by sedimentation assay with ELISA
[3] = Inhibition of amyloid beta (1-42) self-aggregation at 4uM after 24 hrs by sedimentation assay with ELISA
N2a [4] = assay: Neuroprotective activity against amyloid beta-induced neurotoxicity in mouse N2A cells after 24 hrs by MTS assay; format: functional, cell-based
[5] = Inhibition of amyloid beta (1-42) fibril formation after 24 hrs by thioflavin T fluorescence method

Compound: CNc1ccc(C(=O)NC(CCCCNC(=O)OCc2ccccc2)C(=O)O)cc1 (centres undefined)
- Activity (N2a [1]): Non-toxic
- IC50 [2]: 2750 nM
- inhibition [3]: 80%

Compound: O=C(Cc1ccccc1)NC(CSSCC(NC(=O)Cc1ccccc1)C(=O)O)C(=O)O (centres undefined)
- Activity (N2a [1]): Non-toxic
- IC50 [2]: 1950 nM
- inhibition [3]: 80%

Compound: COC(=O)C[C@](O)(CCC(C)(C)O)C(=O)O[C@@H]1C(OC)=C[C@]23CCCN2CCc2cc4c(cc2[C@H]13)OCO4 [HARRINGTONINE]
- Activity (N2a [4]): inactive
- Activity [5]: inactive
- Activity (N2a [1]): Non-toxic
